Test results as given in US10533161B2, “NADPH oxidase proteins” (Universite Grenoble Alpes, priority 2014, dated 2020).
Entries after “also recorded” stand apart in the source; their conditions may differ.

Tests used:
SpNox = test: NADPH oxidase activity of SpNox by colorimetry (NBT reduction, 96-well plate); format: biochemical, Streptococcus pneumoniae; conditions: absorbance at 560 nm, 5 concentrations 0.01-100 μM (DPI 0.005-50 μM), triplicate
Procedure: The oxidase activity is determined by measuring the kinetics of reduction of NBT by the O2.^− ions, by monitoring the increase in absorbance at 560 nm (molar extinction coefficient of NBT: ε560=30 000 mM^−1.cm^−1). It is also possible to use a wavelength of 550 nm SpNox is incubated with a reaction mixture containing the molecule to be tested, NBT, FAD and the protein storage buffer for 5 to 20 min at 25° C. The reaction is then started by adding NADPH.
The NADPH oxidase activity is then quantified at the end point by determining the intensity of the coloration compared to a positive control. The positive control is carried out with the SpNox protein alone, without the molecule to be tested.
The compounds present in each well of the plate are, as final concentration: • 0.1 μg of SpNox; • 2 μM of FAD; • 125 μM of NBT; • 150 μM NADPH; • Molecule A; • SpNox storage buffer q.s. 200 μL.
All the experiments were carried out in triplicate and each molecule was tested at 5 different concentrations. The concentration range is deliberately wide so as to be able to include the possible IC50 values of each molecule. The concentrations selected are: 0.01-0.1-1-10-100 μM.

eukaryotic NOX = conditions: commercial molecules targeting the eukaryotic NOX; cited from earlier work

Compound | Effect on the NADPH oxidase activity of SpNox (SpNox) | Property (NADPH oxidase activity of the eukaryotic NOX) (eukaryotic NOX)
CCCCC/C=C\C/C=C\C/C=C\C/C=C\CCCC(=O)O [Arachidonic acid (AA), Arachidonic acid] | stimulates the production of superoxide; also recorded: activator of SpNox | Activator
Oc1cc(O)c2c(c1)O[C@H](c1ccc(O)c(O)c1)[C@@H](O)C2 [Catechin] | inhibitors of SpNox | Inhibitor
CC1=C(O)C(=O)C=C2C1=CC=C1[C@@]2(C)CC[C@@]2(C)[C@@H]3C[C@](C)(C(=O)O)CC[C@]3(C)CC[C@]12C [Celastrol] | inhibitors of SpNox | Inhibitor
c1ccc2c(c1)[IH]c1ccccc1-2 [DPI, diphenyleneiodonium chloride] | inhibits the reaction; also recorded: inhibitory effect; also recorded: inhibitors of SpNox | Inhibitor
O=c1c2ccccc2[se]n1-c1ccccc1 [Ebselen] | inhibitors of SpNox | Inhibitor
O=C(O[C@@H]1Cc2c(O)cc(O)cc2O[C@@H]1c1ccc(O)c(O)c1)c1cc(O)c(O)c(O)c1 [Epicatechin gallate] | inhibitors of SpNox | Inhibitor
Cc1ccccc1-n1sc2cc(F)ccc2c1=O [Thr101] | inhibitors of SpNox | Inhibitor
c1ccc(Cn2nnc3c(Sc4nc5ccccc5o4)ncnc32)cc1 [VAS2870] |  | Inhibitor
